According to US20150299188A1, “HETEROCYCLIC COMPOUND” (priority 2012, published 2015):

System: FLAP (5-lipoxygenase activating protein)
Experiment: In vitro binding test: displacement of [3H]-7-chloro-3-(5-((3-fluoropyridin-2-yl)methoxy)-2-methylphenyl)-3,4-dihydroquinazolin-2(1H)-one from Sf9 microsome fractions
Parameters: species or system human and mouse
Settings: Sf9 microsome fractions expressing FLAP; 100% = radioligand binding with 10 μM sodium 3-(3-(tert-butylsulfanyl)-1-(4-chlorobenzyl)-5-isopropyl-1H-indol-2-yl)-2,2-dimethylpropanoate, 0% = DMSO; test compound concentration not given
Summary of the method: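 Sf9 microsomes expressing human or mouse FLAP (2 μg/mL) preincubated with compound 10 min at room temperature, then 120 nM tritiated quinazolinone ligand added for 60 min; buffer 100 mM Tris-HCl pH 7.5 with NaCl, EDTA, DTT, glycerol, Tween20. Bound ligand filtered and counted by scintillation; 10 μM indole propanoate defines 100% inhibition, DMSO 0%.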

Row | SMILES | inhibitory rate (%)
1 | COC(=O)c1ccc2c(c1)NC(=O)N(c1cc(OCc3c(F)cccc3F)ccc1C(=O)OC)C2 [Example 176, methyl 3-(5-((2,6-difluorobenzyl)oxy)-2-(methoxycarbonyl)phenyl)-2-oxo-1,2,3,4-tetrahydroquinazoline-7-carboxylate] | 95%
2 | CCc1ccc(OCc2c(F)cccc2F)cc1N1Cc2ccc(C(=O)OC)cc2NC1=O [Example 177, methyl 3-(5-((2,6-difluorobenzyl)oxy)-2-ethylphenyl)-2-oxo-1,2,3,4-tetrahydroquinazoline-7-carboxylate] | 84%
3 | CCc1ccc(OCc2c(F)cccc2F)cc1N1Cc2ccc(C(C)(C)O)cc2NC1=O [Example 178, 3-(5-((2,6-difluorobenzyl)oxy)-2-ethylphenyl)-7-(2-hydroxypropan-2-yl)-3,4-dihydroquinazolin-2(1H)-one] | 109%
4 | CCc1ccc(OCc2c(F)cccc2F)cc1N1Cc2ccc(CO)cc2NC1=O [Example 179, 3-(5-((2,6-difluorobenzyl)oxy)-2-ethylphenyl)-7-(hydroxymethyl)-3,4-dihydroquinazolin-2(1H)-one] | 91%
5 | Cc1ccc(OCc2c(F)cccc2F)cc1N1Cc2ccc(C(C)(C)O)cc2NC1=O [Example 180, 3-(5-((2,6-difluorobenzyl)oxy)-2-methylphenyl)-7-(2-hydroxypropan-2-yl)-3,4-dihydroquinazolin-2(1H)-one] | 81%
6 | Cc1ccc(OCc2c(F)cccc2F)cc1N1Cc2ccc(CO)cc2NC1=O [Example 181, 3-(5-((2,6-difluorobenzyl)oxy)-2-methylphenyl)-7-(hydroxymethyl)-3,4-dihydroquinazolin-2(1H)-one] | 91%
7 | Cc1cc2c(cc1N1Cc3ccc(C(=O)N4CCOCC4)cc3NC1=O)OC(c1ncccc1F)CC2 (stereo not drawn) [Example 183, 3-(2-(3-fluoropyridin-2-yl)-6-methyl-3,4-dihydro-2H-chromen-7-yl)-7-(morpholin-4-ylcarbonyl)-3,4-dihydroquinazolin-2(1H)-one] | 96%
8 | Cc1cc2c(cc1N1Cc3ccc(C(=O)NC4CC4)cc3NC1=O)OC(c1ncccc1F)CC2 (stereo not drawn) [Example 184, N-cyclopropyl-3-(2-(3-fluoropyridin-2-yl)-6-methyl-3,4-dihydro-2H-chromen-7-yl)-2-oxo-1,2,3,4-tetrahydroquinazoline-7-carboxamide] | 97%
9 | Cc1cc2c(cc1N1Cc3ccc(CO)cc3NC1=O)OC(c1ncccc1F)CC2 (stereo not drawn) [Example 185, 3-(2-(3-fluoropyridin-2-yl)-6-methyl-3,4-dihydro-2H-chromen-7-yl)-7-(hydroxymethyl)-3,4-dihydroquinazolin-2(1H)-one] | 98%
10 | Cc1ccc(OCc2c(F)cccc2F)cc1N1Cc2cc(CO)ccc2NC1=O [Example 186, 3-(5-((2,6-difluorobenzyl)oxy)-2-methylphenyl)-6-(hydroxymethyl)-3,4-dihydroquinazolin-2(1H)-one] | 62%
11 | Cc1ccc(OCc2ncccc2Cl)cc1N1Cc2ccccc2NC1=O [Example 187, 3-(5-((3-chloropyridin-2-yl)methoxy)-2-methylphenyl)-3,4-dihydroquinazolin-2(1H)-one] | 103%
12 | COC(=O)c1ccc(OCc2c(F)cccc2F)cc1N1Cc2ccccc2NC1=O [Example 188, methyl 4-((2,6-difluorobenzyl)oxy)-2-(2-oxo-1,4-dihydroquinazolin-3(2H)-yl)benzoate] | 83%
13 | CC(C)(O)CNC(=O)c1ccc(OCc2c(F)cccc2F)cc1N1Cc2ccccc2NC1=O [Example 190, 4-((2,6-difluorobenzyl)oxy)-N-(2-hydroxy-2-methylpropyl)-2-(2-oxo-1,4-dihydroquinazolin-3(2H)-yl)benzamide] | 55%
14 | O=C(NCc1ccccn1)c1ccc(OCc2c(F)cccc2F)cc1N1Cc2ccccc2NC1=O [Example 192, 4-((2,6-difluorobenzyl)oxy)-2-(2-oxo-1,4-dihydroquinazolin-3(2H)-yl)-N-(pyridin-2-ylmethyl)benzamide] | 51%
15 | COCc1ccc2c(c1)NC(=O)N(c1cc(OCc3c(F)cccc3F)ccc1C)C2 [Example 193, 3-(5-((2,6-difluorobenzyl)oxy)-2-methylphenyl)-7-(methoxymethyl)-3,4-dihydroquinazolin-2(1H)-one] | 97%
16 | Cc1ccc(OCc2c(F)cccc2F)cc1N1Cc2cccc(CO)c2NC1=O [Example 194, 3-(5-((2,6-difluorobenzyl)oxy)-2-methylphenyl)-8-(hydroxymethyl)-3,4-dihydroquinazolin-2(1H)-one] | 71%
17 | Cc1ccc(OCc2c(F)cccc2F)cc1N1Cc2c(CO)cccc2NC1=O [Example 195, 3-(5-((2,6-difluorobenzyl)oxy)-2-methylphenyl)-5-(hydroxymethyl)-3,4-dihydroquinazolin-2(1H)-one] | 97%

Row | SMILES | inhibitory rate (%)
18 | Cc1ccc(OCc2c(F)cccc2F)cc1N1Cc2ccc(C(N)=O)cc2NC1=O [Example 196, 3-(5-((2,6-difluorobenzyl)oxy)-2-methylphenyl)-2-oxo-1,2,3,4-tetrahydroquinazoline-7-carboxamide] | 97%
19 | Cc1ccc(OCc2c(F)cccc2F)cc1N1Cc2ccc(C(=O)NCCO)cc2NC1=O [Example 197, 3-(5-((2,6-difluorobenzyl)oxy)-2-methylphenyl)-N-(2-hydroxyethyl)-2-oxo-1,2,3,4-tetrahydroquinazoline-7-carboxamide] | 101%
20 | COC(=O)c1ccc2c(c1)NC(=O)N(c1cc(OCc3cccc(F)c3F)ccc1C)C2 [Example 198, methyl 3-(5-((2,3-difluorobenzyl)oxy)-2-methylphenyl)-2-oxo-1,2,3,4-tetrahydroquinazoline-7-carboxylate] | 94%
21 | COC(=O)c1ccc2c(c1)NC(=O)N(c1cc(OCc3cc(F)ccc3F)ccc1C)C2 [Example 199, methyl 3-(5-((2,5-difluorobenzyl)oxy)-2-methylphenyl)-2-oxo-1,2,3,4-tetrahydroquinazoline-7-carboxylate] | 60%
22 | COC(=O)c1ccc2c(c1)NC(=O)N(c1cc(OCc3ccc(F)cc3F)ccc1C)C2 [Example 200, methyl 3-(5-((2,4-difluorobenzyl)oxy)-2-methylphenyl)-2-oxo-1,2,3,4-tetrahydroquinazoline-7-carboxylate] | 100%
23 | Cc1ccc(OCc2ccc(F)cc2F)cc1N1Cc2ccc(C(C)(C)O)cc2NC1=O [Example 201, 3-(5-((2,4-difluorobenzyl)oxy)-2-methylphenyl)-7-(2-hydroxypropan-2-yl)-3,4-dihydroquinazolin-2(1H)-one] | 104%
24 | Cc1ccc(OCc2c(F)cccc2F)cc1N1Cc2c(cccc2C(C)(C)O)NC1=O [Example 202, 3-(5-((2,6-difluorobenzyl)oxy)-2-methylphenyl)-5-(2-hydroxypropan-2-yl)-3,4-dihydroquinazolin-2(1H)-one] | 72%
25 | Cc1ccc(OCc2cccc(F)c2F)cc1N1Cc2ccc(C(C)(C)O)cc2NC1=O [Example 203, 3-(5-((2,3-difluorobenzyl)oxy)-2-methylphenyl)-7-(2-hydroxypropan-2-yl)-3,4-dihydroquinazolin-2(1H)-one] | 81%
26 | Cc1ccc(OCc2c(F)cccc2F)cc1N1Cc2ccc(C#N)cc2NC1=O [Example 204, 3-(5-((2,6-difluorobenzyl)oxy)-2-methylphenyl)-2-oxo-1,2,3,4-tetrahydroquinazoline-7-carbonitrile] | 103%
27 | Cc1ccc(OCc2c(F)cccc2F)cc1N1Cc2ccc(C(=O)N3CCCC(O)C3)cc2NC1=O (stereo not drawn) [Example 205, 3-(5-((2,6-difluorobenzyl)oxy)-2-methylphenyl)-7-((3-hydroxypiperidin-1-yl)carbonyl)-3,4-dihydroquinazolin-2(1H)-one] | 77%
28 | Cc1ccc(OCc2c(F)cccc2F)cc1N1Cc2ccc(CN)cc2NC1=O [Example 206, 7-(aminomethyl)-3-(5-((2,6-difluorobenzyl)oxy)-2-methylphenyl)-3,4-dihydroquinazolin-2(1H)-one] | 81%
29 | Cc1ccc(OCc2c(F)cccc2F)cc1N1Cc2ccc(C(=O)NC(C)(C)C(=O)O)cc2NC1=O [Example 207, N-((3-(5-((2,6-difluorobenzyl)oxy)-2-methylphenyl)-2-oxo-1,2,3,4-tetrahydroquinazolin-7-yl)carbonyl)-2-methylalanine] | 87%
30 | Cc1ccc(OCc2c(F)cccc2F)cc1N1Cc2ccc(-c3noc(=O)[nH]3)cc2NC1=O [Example 208, 3-(5-((2,6-difluorobenzyl)oxy)-2-methylphenyl)-7-(5-oxo-4,5-dihydro-1,2,4-oxadiazol-3-yl)-3,4-dihydroquinazolin-2(1H)-one] | 96%
31 | Cc1ccc(OCc2c(F)cccc2F)cc1N1Cc2ccc(C(=O)NS(C)(=O)=O)cc2NC1=O [Example 209, 3-(5-((2,6-difluorobenzyl)oxy)-2-methylphenyl)-N-(methylsulfonyl)-2-oxo-1,2,3,4-tetrahydroquinazoline-7-carboxamide] | 102%
32 | Cc1ccc(OCc2c(F)cccc2F)cc1N1Cc2ccc(C3=NC(C)(C)C(=O)O3)cc2NC1=O [Example 210, 3-(5-((2,6-difluorobenzyl)oxy)-2-methylphenyl)-7-(4,4-dimethyl-5-oxo-4,5-dihydro-1,3-oxazol-2-yl)-3,4-dihydroquinazolin-2(1H)-one] | 96%
33 | COC(=O)c1ccc2c(c1)NC(=O)N(c1cc(OCc3csc(C)n3)ccc1C)C2 [Example 211, methyl 3-(2-methyl-5-((2-methyl-1,3-thiazol-4-yl)methoxy)phenyl)-2-oxo-1,2,3,4-tetrahydroquinazoline-7-carboxylate] | 86%
